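Cultured in 96-well plates, cells were exposed to test compound for 48 hours across five concentrations. At the GI50, growth is halved. TGI is the concentration that stops growth completely.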
What was measured:
Experiment in all cases: NCI tumour cell line growth inhibition, 48 h
EKVX NSCLC = system: EKVX NSCLC
M14 melanoma = system: M14 melanoma
TK-10 renal = system: TK-10 renal
UACC-62 melanoma = system: UACC-62 melanoma
U251 CNS = system: U251 CNS
A549 NSCLC = system: A549 NSCLC
MOLT-4 leukemia = system: MOLT-4 leukemia
CCRF-CEM leukemia = system: CCRF-CEM leukemia
NCI-H460 lung = system: NCI-H460 lung
HT29 colon = system: HT29 colon
786-0 renal = system: 786-0 renal
OVCAR-4 ovarian = system: OVCAR-4 ovarian
SNB-75 CNS = system: SNB-75 CNS

Compound	TGI (EKVX NSCLC)	TGI (M14 melanoma)	TGI (TK-10 renal)	TGI (UACC-62 melanoma)	TGI (U251 CNS)	TGI (A549 NSCLC)	TGI (MOLT-4 leukemia)	TGI (CCRF-CEM leukemia)	TGI (NCI-H460 lung)	TGI (HT29 colon)	TGI (786-0 renal)	TGI (OVCAR-4 ovarian)	TGI (SNB-75 CNS)	GI50 (UACC-62 melanoma)	GI50 (MOLT-4 leukemia)	GI50 (CCRF-CEM leukemia)	GI50 (SNB-75 CNS)	GI50 (NCI-H460 lung)	GI50 (HT29 colon)	GI50 (OVCAR-4 ovarian)
COC(=O)C1=COC2OC3CC1C2C(C)O3 (configuration not stated)	> 100 µM	> 100 µM	> 100 µM	> 100 µM	> 100 µM	> 100 µM	> 100 µM	> 100 µM	> 100 µM	> 100 µM	> 100 µM	> 100 µM	–	–	–	–	–	–	–	–
Cc1cc(S(=O)(=O)NC2=NCC(C)(C)CN2)c(S)cc1Cl	> 100 µM	> 100 µM	> 100 µM	61.9 µM	89 µM	49.7 µM	–	–	> 100 µM	46.3 µM	> 100 µM	64.5 µM	> 100 µM	–	–	–	–	–	–	–
COc1ccc(/C=C/c2nc(=S)[nH][nH]2)cc1OC	–	> 100 µM	> 100 µM	> 100 µM	> 100 µM	> 100 µM	> 100 µM	> 100 µM	> 100 µM	> 100 µM	> 100 µM	> 100 µM	> 100 µM	–	–	–	–	–	–	–
Cn1c(=O)[nH]c2c(c1=O)C(=O)CN2	> 100 µM	> 100 µM	> 100 µM	–	> 100 µM	> 100 µM	> 100 µM	> 100 µM	> 100 µM	–	–	> 100 µM	> 100 µM	–	–	–	–	–	–	–
CC(C)(C)NC(=S)N/N=C/c1ccccn1	> 100 µM	> 41.9 µM	> 100 µM	37.3 µM	> 100 µM	> 100 µM	–	–	> 100 µM	> 100 µM	> 100 µM	> 100 µM	> 100 µM	–	–	–	–	–	–	–
COC1C(=O)N(SC)C1c1ccccc1Cl (configuration not stated)	64.6 µM	94.2 µM	> 100 µM	> 100 µM	> 100 µM	> 100 µM	31.6 µM	35.1 µM	> 100 µM	40.7 µM	32.9 µM	30.3 µM	–	–	–	–	–	–	–	–
CCOc1nc2sc3c(c2c(=O)n1CCSSCCn1c(OCC)nc2sc4c(c2c1=O)CCCC4)CCCC3	> 100 µM	> 100 µM	> 100 µM	> 100 µM	> 100 µM	> 100 µM	> 100 µM	–	> 100 µM	> 100 µM	> 100 µM	> 100 µM	> 100 µM	–	–	–	–	–	–	–
Oc1ccc(/C=N/c2nccs2)c(O)c1	> 100 µM	> 100 µM	> 100 µM	> 100 µM	–	> 100 µM	–	–	> 100 µM	> 100 µM	> 100 µM	–	> 100 µM	–	–	–	–	–	–	–
Clc1ccc(N2N=C(c3cccc(Nc4ccncc4)c3)CC2c2ccc(Br)cc2)cc1 (configuration not stated)	–	–	–	3.25 µM	–	–	6.17 µM	> 100 µM	3.53 µM	4.48 µM	–	3.36 µM	2.9 µM	1.77 µM	2.34 µM	3.43 µM	1.41 µM	1.85 µM	1.91 µM	1.83 µM
CC1OC(CC2C=CCc3c(O)c4c(c(O)c32)C(=O)c2ccccc2C4=O)CC(NC(=O)C(F)(F)F)C1O (configuration not stated)	25.7 µM	16.1 µM	10.9 µM	17.4 µM	15.4 µM	–	22.5 µM	20.7 µM	24.1 µM	40.5 µM	23.2 µM	11.7 µM	5.8 µM	–	–	–	–	–	–	–
COc1cc(-c2ccccc2)cn2c1nc1ccccc12	–	43.4 µM	–	43.9 µM	52.2 µM	51.4 µM	45.9 µM	70.7 µM	49.4 µM	35.5 µM	34.7 µM	–	43.2 µM	–	–	–	–	–	–	–
CCN1C/C(=C\c2ccc(Cl)cc2)c2[nH]c(=O)c(C#N)c(-c3ccc(Cl)cc3)c2C1	> 100 µM	> 100 µM	> 100 µM	> 100 µM	> 100 µM	> 100 µM	> 100 µM	> 100 µM	> 100 µM	> 100 µM	> 100 µM	> 100 µM	–	–	–	–	–	–	–	–
N#Cc1c(N)c2c(c(-c3ccccc3)c1-c1ccccc1)C(=O)N(O)C2=O	> 100 µM	> 100 µM	> 100 µM	> 100 µM	> 100 µM	> 100 µM	> 100 µM	> 100 µM	> 100 µM	–	> 100 µM	> 100 µM	> 100 µM	–	–	–	–	–	–	–
CC1=NNC(=O)C1C1C=C(c2c[nH]c3ccccc23)OC1=O (configuration not stated)	> 100 µM	> 100 µM	> 100 µM	> 100 µM	> 100 µM	> 100 µM	> 100 µM	> 100 µM	> 100 µM	> 100 µM	> 100 µM	–	> 100 µM	–	–	–	–	–	–	–
COc1cc2c(cc1OC)[C@H]1C(COC(=O)Nc3ccccc3)CN1CC2 (some centres not stated)	–	> 100 µM	> 100 µM	> 100 µM	> 100 µM	> 100 µM	> 100 µM	> 100 µM	> 100 µM	> 100 µM	> 100 µM	> 100 µM	79.3 µM	–	–	–	–	–	–	–
N[C@H]1CCN(c2c(F)cc3c(=O)c(C(=O)O)cn4c3c2Oc2c-4ccc3c2ccc2ccccc23)C1	> 24.7 µM	> 100 µM	–	> 100 µM	6.76 µM	> 100 µM	> 100 µM	–	2.42 µM	> 100 µM	> 36.6 µM	> 33.2 µM	–	–	0.266 µM	–	–	–	–	–
O=C(NCCN(CCNC(=O)c1cccc(=O)n1O)CCNC(=O)c1cccc(=O)n1O)c1cccc(=O)n1O	–	> 100 µM	> 100 µM	> 100 µM	> 100 µM	> 100 µM	–	> 100 µM	> 100 µM	> 100 µM	–	> 100 µM	> 100 µM	–	–	–	–	–	–	–
CCC(=O)CCC1=Nc2nnc(CCCCc3nnc4n3C(=O)C(CCC(=O)CC)=N4)n2C1=O	> 100 µM	> 100 µM	> 100 µM	> 100 µM	–	> 100 µM	> 100 µM	> 100 µM	> 100 µM	> 100 µM	> 100 µM	> 100 µM	> 100 µM	–	–	–	–	–	–	–
CCOC(=O)c1ccc(N(CCOS(=O)(=O)c2ccc(C)cc2)CCOS(=O)(=O)c2ccc(C)cc2)cc1	> 100 µM	> 100 µM	> 100 µM	> 100 µM	46.6 µM	> 100 µM	> 100 µM	> 100 µM	> 100 µM	> 100 µM	–	> 100 µM	–	–	–	–	–	–	–	–

From PubChem BioAssay (NCI)
